The values below come from patent US5462957A, “Azole derivatives, pharmaceutical compositions containing the same, and method for treating mycosis and estrogen-dependent diseases” (Kureha Chemical Industry Co., Ltd., priority 1992, dated 1995).

The nature of data set [1]: in vivo. The note with it: mouse, po. Here is the method:
Acute toxicity by oral route was investigated using ICR-JCL mice.
The compounds of the present invention, Compound Nos. 1, 2, 13, 14, 33, 34, 41, 42, 47, 48, 53, 54, 67, and 68, were dissolved or dispersed in polyethylene glycol 200 or physiological saline. The solution or suspension was given in a prescribed amount by means of a syringe or a stomach tube.

Data set [2] concerns Candida albicans (IFO 1060). Nature of the data set: Antimycotic activity: survival of mice infected with Candida albicans. Format: in vivo. The note with it: IFO1060, 480 h, female ICR mice, oral, 100 mg/kg day for 5 consecutive days, observed for 20 days, control and solvent control 20, read-out: Survival Rate (%). Here is the method:
The evaluation of antimycotic activity can be carried out by administering a dosage of the compound in […] that have been inoculated with a strain of Candida albicans, preferably orally, and observing the mortality of the inoculated mice for 20 days.
The survival rate was calculated from the mean survival days.
Five-week-old female ICR mice of 10 animals per group were infected with Candida albicans (IFO 1060) in an amount of 4.8×10^6 cfu (colony forming unit)/mouse through a tail vein.
After one hour following the introduction of the infection, a solution of each compound (see Table 8 below) in polyethylene glycol 200 was orally administered for 5 consecutive days in the amount of 100 mg/kg day.
In Table 8, the solvent group was administered only with polyethylene glycol.

In data set [3] the target is T1, aromatase (Homo sapiens, UniProt P11511).
T1 construct: human placenta microsomes (a protein concentration of 0.1 mg/ml); from tissue; host or cells: human placenta microsomes
T1 sequence (P11511 1-503): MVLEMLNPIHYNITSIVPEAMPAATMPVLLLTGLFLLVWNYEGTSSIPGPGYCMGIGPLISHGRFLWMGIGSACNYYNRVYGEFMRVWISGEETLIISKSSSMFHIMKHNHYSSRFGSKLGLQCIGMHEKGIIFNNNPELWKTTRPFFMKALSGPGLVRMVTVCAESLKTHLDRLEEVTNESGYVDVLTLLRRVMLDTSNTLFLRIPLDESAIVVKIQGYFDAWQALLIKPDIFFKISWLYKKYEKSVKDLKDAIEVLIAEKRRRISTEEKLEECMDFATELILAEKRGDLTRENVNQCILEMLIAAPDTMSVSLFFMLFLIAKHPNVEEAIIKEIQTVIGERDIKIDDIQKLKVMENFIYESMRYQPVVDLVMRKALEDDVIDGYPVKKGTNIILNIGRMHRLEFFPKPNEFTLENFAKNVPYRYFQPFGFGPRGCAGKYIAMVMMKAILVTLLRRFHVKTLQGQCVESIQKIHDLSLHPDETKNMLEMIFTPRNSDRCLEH
Nature of the data set: Aromatase inhibitory activity (human placenta microsomes, [19-14C]4-androstene-3,17-dione). Format: biochemical. As to the method:
The aromatase enzyme-inhibitory activity was determined in the manner described by Covey, D. F., Biochem. Biophys. Res. Commu., 157 (1), 81-86, 1988. More specifically, the aromatase-inhibitory activity of a compound of formula (I) was evaluated in terms of the concentration (IC50) of the compound causing 50% inhibition of the aromatase activity.
Aromatase activity was determined in the manner described by Covey, D. F., Biochem. Biophys. Res. Commun. 157 (1), 81-86 (1988).
Aromatase inhibitory activity of the compounds was evaluated in the 50% aromarase-inhibitory concentration (IC50). Microsomes of human-placenta and [19-^14 C]4-androstene-3,17 dione were used as an aromatase source and a substrate, respectively.
The radioactivity of H^14 COOH which was released into a reaction mixture as a result of aromatization was measured to evaluate the aromatase activity.
The aromatase inhibitory activity and the concentration of each compound was depicted in a graph, from which the IC50 was determined.
[19-^14 C]4-Androstene-3,17-dione (1×10^-6 M, 2 KBq/ml), human placenta microsomes (a protein concentration of 0.1 mg/ml), coenzyme NADP (2×10^-3 M), glucose-6-phosphoric acid (4×10^-3 M), and glucose-6-phosphoric acid dehydrogenase (4U/ml) were added to a phosphoric acid buffer solution (67 mM, pH 7.2, 0.5 ml) and reacted at 37° C. for 30 minutes while the mixture was being shaken.
The test compound dissolved in DMSO was added to the reaction mixture and the final concentration of DMSO was in the range of 0.1 to 0.55% by volume per volume.
Chloroform (5 ml) was then added to the reaction mixtures to cease the reaction. The H^14 COOH, which had been released into a reaction mixture, was recovered in a water layer by stirring the reaction mixture. The water layer (0.1 ml) was added to a liquid scintillation cocktail (Atomlight, Dupont, 4 ml) to measure its radioactivity.
The positive control is 4-hydroxyandrostenedione.

Data set [4] deals with spontaneous mastocarcinoma. Nature of the data set: Antitumor effects: tumor growth inhibition in rats with mastocarcinoma. Format: in vivo, Sprague-Dawley rats. Conditions: Rattus norvegicus, ip, read-out: Tumor growth inhibition rate (%). Here is the method:
Fifty-day-old female Sprague-Dawley rats were orally given 7,12-dimethylbenzanthracene (15 mg/kg) and observed for two months. Those rats developing spontaneous mastocarcinoma were selected and divided into groups each consisting of 15 animals: groups each of which is to be given a different compound of the present invention; a group to be given a control compound; and a control group to be given a simple physiological saline solution. Each group was intraperitoneally given the corresponding physiological saline solution or dispersion in an amount of 25 mg/kg daily for 20 consecutive days. Five days after the last administration, the rats were sacrificed to weigh the tumors. The mean tumor weight (T) of the 15 rats of each of the groups which had been given compounds of the present invention or the control compound, and the mean tumor weight (C) of the 15 rats of the control group which had been given a simple physiological saline solution were calculated. The tumor growth inhibition rate of each group was calculated on the basis of the following formula:
Tumor Growth Inhibition Rate (%) = {1-T/C)} × 100. Positive control is 4-hydroxyandrostenedione.

[5] abbreviates: female Sprague-Dawley rats given 7,12-dimethylbenzanthracene, intraperitoneal, 25 mg/kg daily for 20 consecutive days, mean tumor weight vs saline control.
The mark [6] stands for this setting: human placenta microsomes, substrate 1×10^-6 M, pH 7.2, 37° C., 30 minutes, read-out: IC50.

SMILES strings stand for the structures. Read-outs that look alike come from different tables or passages of the source.

Broadly, the LD50 is the dose expected to kill half of the subjects tested. The low end stands for greater toxicity, the high end for lower toxicity. For orientation: IC50 means the concentration at which inhibition is half-maximal. `CC1OCC(Cc2ccc(F)cc2)C1(O)Cn1cncn1` (stereo not drawn) [Compound No. 1, 4-(4-fluorobenzyl)-3-hydroxy-2-methyl-3-(1H-1,2,4-triazol-1-ylmethyl) tetrahydrofuran]: in data set [1], the LD50 at 168 h was more than 1000 mg/kg. In addition, the responders at 100 mg/kg in data set [2] is 40%. The same compound came in with an IC50 in data set [3] of 6000 nM. Further, in data set [4] (setting [5]), the inhibition in vivo at 25 mg/kg worked out at 60%.

`CC1(C)OCC(Cc2ccc(F)cc2)C1(O)Cn1cncn1` (stereo not drawn) [Compound No. 13, 4-(4-fluorobenzyl)-3-hydroxy-2,2-dimethyl-3 (1H-1,2,4-triazole-1-ylmethyl) tetrahydrofuran] displayed a median lethal dose (LD50) at 168 h in data set [1] of more than 1000 mg/kg. In addition, the responders at 100 mg/kg in data set [2] turned out to be 55%. Moreover, in data set [3], 5300 nM corresponded to half-maximal inhibition (IC50). Also, the inhibition in vivo at 25 mg/kg in data set [4] (setting [5]) was found to be 58%.

`CC1(C)OCC(Cc2ccc(F)cc2)C1(O)Cn1ccnc1` (stereo not drawn) [Compound No. 14, 4-(4-fluorobenzyl)-3-hydroxy-3-(imidazol-1-ylmethyl)-2,2-dimethyltetrahydrofuran]: the LD50 at 168 h in data set [1] was more than 1000 mg/kg. Besides, in data set [2], the responders at 100 mg/kg came out at 70%. This compound also gave an IC50 in data set [3] of 480 nM. Besides, in data set [4] (setting [5]), the inhibition in vivo at 25 mg/kg worked out at 63%.

Regarding `CC1(C)OCC(Cc2ccc(Cl)cc2)C1(O)Cn1cncn1` (stereo not drawn) [Compound No. 33, 4-(4-chlorobenzyl)-3-hydroxy-2,2-dimethyl-3-(1H-1,2,4-triazol-1-ylmethyl) tetrahydrofuran], in data set [1], the LD50 at 168 h is more than 1000 mg/kg. The responders at 100 mg/kg in data set [2] is 60%. This compound had an IC50 in data set [3] of 7000 nM. In data set [4] (setting [5]), the inhibition in vivo at 25 mg/kg was 65%.

`CC1(C)OCC(Cc2ccc(Cl)cc2)C1(O)Cn1ccnc1` (stereo not drawn) [Compound No. 34, 4-(4-chlorobenzyl)-3-hydroxy-3-(1H-imidazol-l-ylmethyl) -2,2-dimethyltetrahydrofuran] yielded an LD50 at 168 h in data set [1] of more than 1000 mg/kg. For the same compound, the responders at 100 mg/kg in data set [2] came out at 80%. The same compound displayed an IC50 in data set [3] of 500 nM. Also, the inhibition in vivo at 25 mg/kg in data set [4] (setting [5]) stood at 80%.

The compound `CC1(C)OCC(Cc2ccc(C#N)cc2)C1(O)Cn1cncn1` (stereo not drawn) [Compound No. 53] showed an LD50 at 168 h in data set [1] of more than 1000 mg/kg. The responders at 100 mg/kg in data set [2] worked out at 42%. Also, in data set [3], the half-maximal inhibitory concentration (IC50) was determined as 1200 nM. Also, the inhibition in vivo at 25 mg/kg in data set [4] (setting [5]) was 60%.

Compound `CC1(C)OCC(Cc2ccc(C#N)cc2)C1(O)Cn1ccnc1` (stereo not drawn) [Compound No. 54] registered an LD50 at 168 h in data set [1] of more than 1000 mg/kg. The responders at 100 mg/kg in data set [2] stood at 40%. Also, the IC50 in data set [3] (setting [6]) is 1000 nM. Besides, in data set [4] (setting [5]), the inhibition in vivo at 25 mg/kg turned out to be 73%.

With `CC1(C)OCC(Cc2ccccc2-c2ccccc2)C1(O)Cn1cncn1` (stereo not drawn) [Compound No. 67], in data set [1], the LD50 at 168 h is more than 1000 mg/kg. For the same compound, the responders at 100 mg/kg in data set [2] is 53%. In data set [3], the IC50 stood at 4700 nM. In data set [4] (setting [5]), the inhibition in vivo at 25 mg/kg stood at 74%.

`CC1(C)OCC(Cc2ccccc2-c2ccccc2)C1(O)Cn1ccnc1` (stereo not drawn) [Compound No. 68] came in with an LD50 at 168 h in data set [1] of more than 1000 mg/kg. Moreover, the responders at 100 mg/kg in data set [2] was 62%. Further, the IC50 in data set [3] (setting [6]) is 350 nM. The inhibition in vivo at 25 mg/kg in data set [4] (setting [5]) amounted to 85%.

For the compound `C[C@]12CCC(=O)C(O)=C1CC[C@@H]1[C@@H]2CC[C@]2(C)C(=O)CC[C@@H]12` [Positive Control, 4-hydroxyandrostenedione, reference compound], the inhibition in vivo at 25 mg/kg in data set [4] amounted to 48%.

Turning to `CC1OCC(Cc2ccc(F)cc2)C1(O)Cn1ccnc1` (stereo not drawn) [compound 2, 4-(4-fluorobenzyl)-3-hydroxy-3-(imidazol-1-ylmethyl)-2-methyl tetrahydrofuran], in data set [1], the LD50 at 168 h is more than 1000 mg/kg. Further, the responders at 100 mg/kg in data set [2] worked out at 55%. In data set [3] (setting [6]), the IC50 amounted to 530 nM. Further, the inhibition in vivo at 25 mg/kg in data set [4] (setting [5]) came out at 54%.

Regarding `OC1(Cn2cncn2)COCC1Cc1ccc(F)cc1` (stereo not drawn) [compound 21], the responders at 100 mg/kg in data set [2] is 37%. Also, the IC50 in data set [3] (setting [6]) is 4700 nM. Besides, the inhibition in vivo at 25 mg/kg in data set [4] (setting [5]) worked out at 72%.

Regarding `OC1(Cn2ccnc2)COCC1Cc1ccc(F)cc1` (stereo not drawn) [compound 22], in data set [2], the responders at 100 mg/kg was determined as 46%. Besides, the IC50 in data set [3] (setting [6]) is 630 nM. Moreover, the inhibition in vivo at 25 mg/kg in data set [4] (setting [5]) was determined as 75%.

In turn, `CC1(C)OCC(Cc2ccc(F)cc2F)C1(O)Cn1cncn1` (stereo not drawn) [compound 41] came in with an LD50 at 168 h in data set [1] of more than 1000 mg/kg. The responders at 100 mg/kg in data set [2] came to 56%. Half-maximal inhibition in data set [3] (IC50) was put at 3000 nM. The inhibition in vivo at 25 mg/kg in data set [4] (setting [5]) was 48%.

Compound `CC1(C)OCC(Cc2ccc(F)cc2F)C1(O)Cn1ccnc1` (stereo not drawn) [compound 42] came in with an LD50 at 168 h in data set [1] of more than 1000 mg/kg. Further, the responders at 100 mg/kg in data set [2] is 63%. In data set [3], this compound gave an IC50 of 270 nM. Besides, the inhibition in vivo at 25 mg/kg in data set [4] (setting [5]) is 56%.

`CC1(C)OCC(Cc2ccc(Cl)cc2Cl)C1(O)Cn1cncn1` (stereo not drawn) [compound 47] gave an LD50 at 168 h in data set [1] of more than 1000 mg/kg. Also, the responders at 100 mg/kg in data set [2] turned out to be 58%. The compound also gave an IC50 in data set [3] of 1000 nM. Also, the inhibition in vivo at 25 mg/kg in data set [4] (setting [5]) was determined as 55%.

Consider `CC1(C)OCC(Cc2ccc(Cl)cc2Cl)C1(O)Cn1ccnc1` (stereo not drawn) [compound 48], for which the LD50 at 168 h in data set [1] was more than 1000 mg/kg. In addition, the responders at 100 mg/kg in data set [2] is 53%. The same compound registered an IC50 in data set [3] of 1500 nM. The inhibition in vivo at 25 mg/kg in data set [4] (setting [5]) came to 70%.
